The IC50 is the concentration that inhibits the measured activity by half. A high value points to weaker potency.

From patent publication US7393856B2, “Anti-viral uses of borinic acid complexes” (Anacor Pharmaceuticals, Inc., priority 2004, dated 2008) come the findings set out here.

One data set relates to HSV-2. The data set is described as follows: In vitro anti-viral activity for HSV-2. The class given is cell-based. Particulars: Human alphaherpesvirus 2.
Data set [1] is described as follows: In vitro anti-viral activity for HSV-2. The class given is cell-based. Particulars: HSV-2 assay; toxic concentration that kills 50% of cells; read-out: Anti-HSV-2 Activity TC50.
Data set [2] can be described thus: In vitro anti-viral activity for HSV-1. The class given is cell-based. The settings on record: HSV-1 assay; toxic concentration that kills 50% of cells; read-out: Anti-HSV-1 Activity TC50.
The test system of the next data set is HSV-1. Description: In vitro anti-viral activity for HSV-1. Type of data set: cell-based. The settings on record: Human alphaherpesvirus 1.
Data set [3] can be described thus: HepG2 2.15 anti-viral evaluation assay (in vitro anti-HBV activity). The class given is cell-based, HBV aywl strain. The settings on record: human, HepG2 2.2.15 cells (produce HBV aywl strain); HepG2 2.2.15 cells; positive control; read-out: Anti-HBV TC50. As for the experimental part: (§1) HepG2 2.2.15 cells, which produce HBV aywl strain, were plated in 96-well collagen coated microtiter plates at a density of 2.5×10^4/well with DMEM medium supplemented with 2% fetal bovine serum. One day following plating of cells, the wells were washed and the medium was replaced with complete medium containing the test compound diluted in the medium in a half-log series.
(§2) The medium was replaced once with the fresh medium containing the freshly diluted compound three days post the initial addition of the lamivudine, a positive control compound. Cell viability was determined using CellTiter 96® Reagent (Promega, Madison, Wis.) according to the manufacturer's protocol, using a Vmax plate reader (Molecular Devices, Sunnyvale, Calif.). The mixture is metabolized by the mitochondrial enzymes of metabolically active cells to a soluble formazan product, allowing the rapid quantitative analysis of cell numbers. The media was removed and replaced with 100 μL of fresh media and 10 μL of Cell Titer 96. […] Percent cell viability of compound treated wells compared to no compound controls was calculated using an in-house computer program which graphs the percent reduction in viral cytopathic effects and the cell numbers at each drug concentration relative to control values.

A further data set relates to HBV. The data set is described as above. Type of data set: cell-based, HBV aywl strain. As for the experimental part: as §1, §2
The test system of another data set is HIV-2. The data set is described as follows: In vitro anti-viral activity for HIV-2. Type of data set: cell-based. The settings on record: Human immunodeficiency virus 2.
Data set [4] can be described thus: In vitro anti-viral activity for HIV-2. Type of data set: cell-based. Particulars: HIV-2 assay; toxic concentration that kills 50% of cells; read-out: Anti-HIV-2 Activity TC50.
Data set [5] is described as follows: In vitro anti-viral activity for HIV-1. The class given is cell-based. The settings on record: HIV-1 assay; toxic concentration that kills 50% of cells; read-out: Anti-HIV-1 Activity TC50.
In the next data set the test system is HIV-1. The data set is described as follows: In vitro anti-viral activity for HIV-1. Type of data set: cell-based. The settings on record: Human immunodeficiency virus 1.

Where only a bound is given, the exact number is not on record here.

Consider `Nc1nc2c(ncn2COCCO)c(=O)[nH]1` [Acyclovir, reference compound], for which the results for the IC50 in the data set on HSV-2 and in the data set on HSV-1 were 7.61 µM and 18 µM, respectively. Further, the CC50 in [1] and in [2] was greater than 100 µM in each case.
`Nc1ccn([C@@H]2CS[C@H](CO)O2)c(=O)n1` [Lamivudine]: the CC50 in [3] was greater than 1 µM. Also, in the data set on HBV (HBV, TC50/IC50), the “Anti-viral Selectivity Index” value is recorded as greater than 1075. Besides, in the data set with HBV (Hepatitis B virus, HepG2 2.2.15 cells, positive control), it took 0.0093 µM to reach half-maximal inhibition (IC50).
Turning to `Fc1ccc(B(Oc2cccc3cccnc23)c2ccc(Cl)cc2)cc1` [Compound 15, (4-Fluorophenyl)(4-chlorophenyl)borinic acid quinolin-8-yl ester], the IC50 was greater than 50 µM in the data set with HSV-2, 0.04 µM in the data set with HIV-2, 9.68 µM in the data set on HSV-1 and 0.17 µM with HIV-1. The CC50 was 32.9 µM in [1], 0.53 µM in data set [4], greater than 32 µM in [2] and 2.5 µM in data set [5].
